Columns and labels:
phosphodiesterase 4A = target: T1, phosphodiesterase 4A (Homo sapiens, UniProt P27815); experiment: Recombinant human PDE4A assay; format: biochemical
T1 construct: made in house; host or cells: E. coli

[1] = system: anaphylactic bronchoconstriction; experiment: Effect on anaphylactic bronchoconstriction response; format: in vivo, guinea pig; conditions: oral administration one hour before the antigen; from AUC suppression ratio
Procedure: For passive sensitization, 1 ml of rabbit anti-ovalbumine serum was peritoneally administered to male Hartley guinea pigs, and 16 to 24 hours later, ovalbumine was intravenously administered as the antigen. The induced anaphylactic bronchoconstriction was measured by the modified Konzett and Rossler method. Each of the tracheal cannulae was completely closed at the end of the measurement and the measured constriction was defined as the maximum constriction. Changes in the constriction were measured as percentage in the maximum constriction. The area under the curve (AUC) indicating the strength of the response was calculated by an image analyzer (MCID system, Imaging Research Company). The test compound was orally administered one hour before the antigen administration, and the ID50 value of each drug was calculated from the AUC suppression ratio by linear regression analysis.

TNF α production = experiment: Suppression effect on TNF α production in the LPS induced mouse sepsis model; format: in vivo; conditions: Method A; dose 10 mg/kg orally 90 min before LPS; serum TNF α
Procedure: Lipopolysaccharide (LPS, DIFCO Laboratories) was dissolved in physiological saline to make a final concentration of 0.2 mg/ml. The resulting solution was administered intravenously to the tail of Balb/c male mice (7-week-old) (Charls River Japan Co.) at 200 μl per 20 g body weight of 5 to 6 mice/group. One hour after administration, blood was drawn from a fundus oculi vein of each mouse to obtain serum. […] The concentration of TNF a in serum was measured by enzyme-linked immunosorbent assay (ELISA method) as follows: […] anti-mouse TNF a monoclonal antibody (Pharmingen Inc.) diluted with a phosphate buffer solution (PBS) was added to a 96-well microtiter plate (Nalge Nunc International immuno-plate <MaxiSorp=) at […]; allowed to stand at 4° C. for 12 hours for coating; mixed with […] of a phosphate buffer solution containing 1% bovine serum albumin (BSA) (1% BSA-PBS); allowed to stand at room temperature for 1 hour to block the non-specific binding; washed with phosphate buffer solution; mixed with […] of the subject serum diluted two-fold with 1% BSA-PBS; and allowed to stand at room temperature for 2 hours. Furthermore, recombinant mouse TNF α (Genzyme Corp.) diluted with 1% BSA-PBS was similarly treated and used as a standard substance. These plates were washed three times with PBS (0.05% Tween-PBS) containing 0.05% polyoxyethylenesorbitan monolaurate (Tween 20, Wako Pure Chemical Industries, Ltd.), mixed with […] of biotin-labelled anti-mouse TNF α monoclonal antibody (Method A: Pharmingen Inc.; Method B: Genzyme Corp) diluted with 1% BSA-PBS to make a concentration of 1 mg/ml, allowed to stand at room temperature for 1 hour, washed three times with 0.05% Tween-PBS, mixed with […] of horseradish peroxidase avidin D (Vector Laboratories Inc.) diluted four-thousand-fold with 1% BSA-PBS, and allowed to stand at room temperature for 30 min. Finally, these plates were washed three times with 0.05% Tween-PBS, and mixed with […] of 3,3′,5,5′-tetramethylbenzidine. After color development, the reaction was stopped by adding […] of 10% sulfuric acid solution, and then, the absorbance at 450 nm was measured. The concentration of TNF α in serum was calculated from a calibration curve.
The rate of suppression of each test compound on TNF α production was obtained from the following formula:
Suppression rate=(A−B)/A,
wherein A is the TNF α concentration of the control group and B is the TNF α concentration of the experimental group.
In the above formula, the TNF α concentration of the control group is defined as the value obtained in the absence of the test compound (0.5% methyl cellulose solution alone).
Employed as the reference compounds were 7-methoxy-4-[1-oxo-2-(4-pyridyl)ethyl]-spiro[2,3-dihydrobenzofuran-2,1′-cyclopentane] hydrochloride (disclosed in Example 100 of Japanese Patent Laid-Open No. 8-836624 and hereinafter referred to as Compound RA) having the formula (RA) and 2-benzoyl-4-(3,5-dichloro-4-pyridyl)aminocarbonyl)-7-methoxybenzofuran (disclosed in Example 35 of Japanese Patent Laid-Open No. 8-534708 and hereinafter referred to as Compound RB) having the formula (RB): [drawing 660]

Sunkus murinus = experiment: Effect on vomiting induction in male Sunkus murinus; format: in vivo; conditions: dose 10 mg/kg i.p., observed for 1 hour after administration
Procedure: Five to fifteen male Sunkus murinus per group weighing approximately 60 g were used for the test. According to the method of Matsumoto, et. al. [Japan J. Pharmacol., 48, 303 (1988)], Sunkus murinus were placed separately into metal wire cages (width 15 cm×length 21 cm×height 15 cm). Each sample of the test compound was suspened in a 0.5% Tween 80 physiological saline solution and administered intraperitoneally (i.p.) at a dose of 10 ml/kg. […] In the group that was administered the test-compound, the results are represented as the number of vomiting animals/the number of experimental animals. Compound RA was employed as a reference compound.

[2] = system: neutrophil and eosinophil accumulation; experiment: Effect on neutrophil and eosinophil accumulation in BN rats; format: in vivo, rat; conditions: dose of 30 mg/kg p.o.; BALF 24 hours after antigen
Procedure: The Howell et al's method (Pulmonary Pharmacology, 8, […] (1995)) was partly modified and used for the active sensitization and the antigen exposure.
Oval albumin (OA) (1 mg) and aluminium hydroxide (200 mg) were subcutaneously injected into male Brown-Norway rats (6 week-age, Nippon Charles River), to which were intra abdominally administered dead cells of Bordetella pertussis for the active sensitization of the rats. After 14 days, the rats were put into a plastic chamber (30×50×30 cm), and left to inspire a 1% (w/v) OA solution for 10 minutes for antigen induction. For the inspiration, used was an ultrasonic nebulizer (NE-U12, by Omron, Tokyo).
The test compound was suspended in 0.5% methyl cellulose, and orally administered (p.o.) to the rats one hour prior to the antigen challenge. The group of the rats to which 0.5% methyl cellulose was administered and which were left to inspire OA was referred to as OA Group, while the group of the rats which were left to inspire a physiological saline solution in place of OA was referred to as Saline Group.
After 24 hours from the antigen induction, bronchoalveolar lavage (BAL) was performed. […] Then, the number of all leukocytes existing in the resulting suspension was counted, using an automatic leukocyte counter (Celltac α MEK-6158, by Nippon Koden, Tokyo). […]

[3] = system: cAMP-specific phosphodiesterase (PDE IV); experiment: Inhibition of the PDE IV enzyme derived from a dog trachea; format: biochemical; conditions: test compound 10^−6 M; PDE IV from dog tracheal smooth muscle; substrate cAMP 1 μM
Summary of the method: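 Enzyme purified from dog tracheal smooth muscle; [3H]cAMP substrate at 1 μM final in 50 mM BES pH 7.2, 1 mM MgCl2, 0.1 mg/ml soybean trypsin inhibitor, 30° C for 10–30 min, 1.7% DMSO final. After HCl stop, product converted to adenosine by 5′-nucleotidase, separated on DEAE-Sephadex and scintillation-counted.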

[4] = system: guinea pig bronchial smooth muscle; experiment: Suppression of passive Schultz-Dale response in guinea pig bronchial smooth muscle; conditions: Cavia porcellus; ovalbumin-induced constriction of passively sensitized guinea pig tracheal strips; read-out: IC50 (concentration causing 50% relaxation)
Procedure: For passive sensitization, rabbit anti-ovalbumin serum prepared by the method of Kohda et al. [Nichiyakurishi, 66, 237 (1970)] was peritoneally administered to male Hartley guinea pigs weighing 350 to 500 g, and 24 hours later the tracheae thereof were removed to be used for the experiment. Zig-zag strips were prepared from the tracheae in accordance with the method of Emmerson and Mackay [J. Pharm. Pharmacol., 31, 798 (1979)], and they were suspended in a Krebs-Henseleit solution with aeration of a mixture of 95% oxygen and 5% carbon dioxide at 37° C. After stabilizing for approximately one hour, ovalbumin, as the antigen, was added to the mixture (at a final concentration of […]), and the constriction of the muscle was recorded by a recorder (TYPE 3066; Yokokawa Hokushin Denki) via an isotonic transducer (TD-112S; Nippon Koden). A test compound was cumulatively added to the mixture after the constriction had reached the plateau, and the relaxation ratio was determined. The concentration (IC50) causing 50% relaxation was calculated by linear regression analysis.

[5] = system: histamine-induced bronchoconstriction; experiment: Suppression of histamine-induced bronchoconstriction response in guinea pig; format: in vivo; conditions: intravenous administration; histamine 10 μg/kg iv
Procedure: This test was carried out by a modified Konzett and Rossler method. Under anesthesia with urethane (1.2 g/kg, ip), male Hartley guinea pigs (body weight: 500 to 600 g) were fixed on plates by strings. After undertaking a tracheotomy, cannulae were inserted to the tracheae, right carotid arteries, and left cervical veins. The spontaneous respiration of the guinea pigs was stopped by the administration of gallamie (10 mg/kg) from the left cervical veins via the cannulae. The cannulae inserted into the tracheae were connected to a bronchospasm transducer (Ugo Basile) and a respirator (TB-101, Takashima-shoten, 60 to 70 strokes/minutes, output: 5 cc) and the air overflow volume was recorded by a polygraph (RM-45, Nippon Koden) to measure the amount of bronchoconstriction. For measuring blood pressure, the cannulae inserted in the right carotid arteries were connected to a blood-pressure transducer. Constant bronchoconstriction occurred when histamine (10 μg/kg, iv) was administered at 3 minutes intervals, and the induced bronchoconstriction was used as the control. A test compound was intravenously administered, and one minute later histamine (10 μg/kg, iv) was administered. The test compound was cumulatively administered at 5 minutes intervals, and the bronchoconstriction in control and that after the administration of the test compound was compared.

T1 sequence (P27815 224-886 limits assumed): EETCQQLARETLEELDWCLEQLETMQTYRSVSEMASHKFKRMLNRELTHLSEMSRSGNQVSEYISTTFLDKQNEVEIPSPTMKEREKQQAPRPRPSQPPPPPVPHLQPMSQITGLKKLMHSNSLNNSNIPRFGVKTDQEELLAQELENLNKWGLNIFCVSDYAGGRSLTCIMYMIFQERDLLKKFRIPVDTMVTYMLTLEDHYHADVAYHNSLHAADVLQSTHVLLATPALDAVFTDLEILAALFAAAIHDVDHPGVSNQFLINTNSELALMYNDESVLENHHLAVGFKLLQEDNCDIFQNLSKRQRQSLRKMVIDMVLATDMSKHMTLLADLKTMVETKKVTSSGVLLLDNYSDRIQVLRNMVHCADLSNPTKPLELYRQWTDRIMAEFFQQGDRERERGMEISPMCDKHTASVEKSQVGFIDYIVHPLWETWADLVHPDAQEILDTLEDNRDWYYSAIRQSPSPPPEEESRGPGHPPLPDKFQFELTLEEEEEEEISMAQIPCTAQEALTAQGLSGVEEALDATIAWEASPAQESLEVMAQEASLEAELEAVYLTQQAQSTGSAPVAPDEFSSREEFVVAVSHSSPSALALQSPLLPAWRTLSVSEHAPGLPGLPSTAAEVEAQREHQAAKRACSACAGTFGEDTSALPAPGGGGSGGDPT

Question: For `COc1ccc(C(=O)Cc2ccncc2)c2c1OC1(CCCC1)C2.Cl` [Compound 100, 7-Methoxy-4-[1-oxo-2-(4-pyridyl)ethyl]-spiro[2,3-dihydrobenzofuran-2,1′-cyclopentane].hydrochloride], which “Enzyme Inhibitory Activity (%, 10^−7 M)” value (phosphodiesterase 4A) is on record?
Answer: Its value is 99%.

Question: What about the “ID50 value (50% inhibitory dose)” value [1] of the same molecule?
Answer: The value was 0.53 mg/kg.

Question: Which results are given for `COc1ccc(C(=O)Cc2c(Cl)cncc2Cl)c2cc(C(=O)NCCN3CCOCC3)oc12` [Compound 216, N-(2-morpholinoethyl)-4-[2-(3,5-dichloropyridin-4-yl)-1-oxo]ethyl-7-methoxybenzofuran-2-carboxamide]?
Answer: Suppression rate (%) (TNF α production): 75%; Number of vomiting animals/Number of experimental animals (Sunkus murinus): 0/5; inhibiting activity against eosinophils [2]: 100%; inhibiting activity against neutrophils [2]: 92%

Question: Which results are given for `COc1ccc(/C=C/c2ccncc2)c2c1OC(C)(C)C2` [Compound 68, (E)-7-Methoxy-2,2-dimethyl-4-[2-(4-pyridyl)ethenyl]-2,3-dihydrobenzofuran]?
Answer: Enzyme Inhibitory Activity (%, 10^−6 M) [3]: 80%; IC50 [4]: 1600 nM; ID50 value (50% inhibitory dose) [5]: 0.076 mg/kg; melting point: 145 to 149 °C

— patent publication US6716987B1, “Derivatives of benzofuran or benzodioxazole compounds” (Kyowa Hakko Kogyo Co., Ltd., priority 1995, dated 2004)
